Assay results taken from patent US9932340B2, “Substituted indoles” (AbbVie Inc., priority 2014, dated 2018).

Target: SUV420H1 enzyme (Homo sapiens, UniProt Q4FZB7)
Assay: TR-FRET SAH SUV420H1 enzyme inhibition assay
Format: biochemical
Conditions: Histone Peptide H4(8-30)me1 and SAM, overnight at room temp, TR-FRET detection of SAH, read-out: TR-FRET SAH_SUV420H1 IC50
Method in brief: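 SUV420H1 (90 nM) preincubated 30 min with compound (3-fold dilutions, 50 to 0.00075 μM), then H4(8-30)me1 peptide 5 nM and SAM 4 nM added, overnight at room temp. SAH product detected by TR-FRET with Tb anti-SAH antibody and Oregon Green-SAH in RIPA buffer, 4 h; IC50 from Hill fit, asymptotes fixed 0-100%.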

Sequence of SUV420H1 enzyme (Q4FZB7 whole entry): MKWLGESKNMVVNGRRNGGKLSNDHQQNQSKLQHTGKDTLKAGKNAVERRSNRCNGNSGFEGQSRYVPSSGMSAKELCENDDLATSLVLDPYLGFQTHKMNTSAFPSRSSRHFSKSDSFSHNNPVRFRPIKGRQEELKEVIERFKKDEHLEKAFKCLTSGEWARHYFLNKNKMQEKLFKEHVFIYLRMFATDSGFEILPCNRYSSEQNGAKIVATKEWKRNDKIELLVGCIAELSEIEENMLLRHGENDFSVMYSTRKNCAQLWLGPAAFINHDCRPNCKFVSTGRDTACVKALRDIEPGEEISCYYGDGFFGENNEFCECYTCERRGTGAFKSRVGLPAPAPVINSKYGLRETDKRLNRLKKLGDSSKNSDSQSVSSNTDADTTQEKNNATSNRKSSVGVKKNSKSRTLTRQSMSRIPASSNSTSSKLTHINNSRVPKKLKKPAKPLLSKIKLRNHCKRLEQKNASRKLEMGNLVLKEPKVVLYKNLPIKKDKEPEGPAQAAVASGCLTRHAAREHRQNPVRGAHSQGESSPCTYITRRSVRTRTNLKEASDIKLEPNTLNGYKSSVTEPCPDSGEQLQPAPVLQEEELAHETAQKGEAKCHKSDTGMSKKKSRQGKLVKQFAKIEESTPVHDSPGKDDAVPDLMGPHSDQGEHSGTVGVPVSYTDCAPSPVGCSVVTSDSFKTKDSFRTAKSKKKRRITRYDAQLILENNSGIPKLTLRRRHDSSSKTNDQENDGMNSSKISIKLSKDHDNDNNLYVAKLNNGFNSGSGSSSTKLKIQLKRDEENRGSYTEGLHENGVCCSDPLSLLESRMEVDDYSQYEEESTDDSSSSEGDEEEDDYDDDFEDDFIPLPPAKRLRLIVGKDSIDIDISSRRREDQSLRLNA

SMILES	IC50
Cc1ccc(CNCc2cc3cc(Cl)cc(Cn4cnc5c(N)ncnc54)c3[nH]2)cc1 [Example 241, 9-[(5-chloro-2-{[(4-methylbenzyl)amino]methyl}-1H-indol-7-yl)methyl]-9H-purin-6-amine]	3.63 µM
Cc1cccc(Cl)c1CNCc1cc2cc(Cl)cc(Cn3cnc4c(N)ncnc43)c2[nH]1 [Example 243]	5.46 µM
Cc1ccc(C(=O)NCc2cc3cc(Cl)cc(Cn4cnc5c(N)ncnc54)c3[nH]2)cc1 [Example 246, N-({7-[(6-amino-9H-purin-9-yl)methyl]-5-chloro-1H-indol-2-yl}methyl)-4-methylbenzamide]	7.29 µM
Cc1cccc(C(=O)NCc2cc3cc(Cl)cc(Cn4cnc5c(N)ncnc54)c3[nH]2)c1 [Example 247, N-({7-[(6-amino-9H-purin-9-yl)methyl]-5-chloro-1H-indol-2-yl}methyl)-3-methylbenzamide]	9.38 µM
COc1cccc(CNCc2cc3cc(Cl)cc(Cn4cnc5c(N)ncnc54)c3[nH]2)c1 [Example 249, 9-[(5-chloro-2-{[(3-methoxybenzyl)amino]methyl}-1H-indol-7-yl)methyl]-9H-purin-6-amine]	3.31 µM
COc1ccccc1CNCc1cc2cc(Cl)cc(Cn3cnc4c(N)ncnc43)c2[nH]1 [Example 250, 9-[(5-chloro-2-{[(2-methoxybenzyl)amino]methyl}-1H-indol-7-yl)methyl]-9H-purin-6-amine]	4.44 µM
Nc1ncnc2c1ncn2Cc1cc(Cl)cc2cc(CNC(=O)Cc3ccc(Cl)cc3)[nH]c12 [Example 251, N-({7-[(6-amino-9H-purin-9-yl)methyl]-5-chloro-1H-indol-2-yl}methyl)-2-(4-chlorophenyl)acetamide]	> 50 µM
Nc1ncnc2c1ncn2Cc1cc(Cl)cc2cc(CNC(=O)Cc3ccccc3Cl)[nH]c12 [Example 253, N-({7-[(6-amino-9H-purin-9-yl)methyl]-5-chloro-1H-indol-2-yl}methyl)-2-(2-chlorophenyl)acetamide]	36.1 µM
Nc1ncnc2c1ncn2Cc1cc(Cl)cc2cc(CNC(=O)Cc3ccc(F)cc3)[nH]c12 [Example 254, N-({7-[(6-amino-9H-purin-9-yl)methyl]-5-chloro-1H-indol-2-yl}methyl)-2-(4-fluorophenyl)acetamide]	> 50 µM
Nc1ncnc2c1ncn2Cc1cc(Cl)cc2cc(CNC(=O)Cc3cccc(F)c3)[nH]c12 [Example 255, N-({7-[(6-amino-9H-purin-9-yl)methyl]-5-chloro-1H-indol-2-yl}methyl)-2-(3-fluorophenyl)acetamide]	15.5 µM
Nc1ncnc2c1ncn2Cc1cc(Cl)cc2cc(CNC(=O)Cc3ccccc3F)[nH]c12 [Example 256, N-({7-[(6-amino-9H-purin-9-yl)methyl]-5-chloro-1H-indol-2-yl}methyl)-2-(2-fluorophenyl)acetamide]	> 50 µM
COc1ccc(C(=O)NCc2cc3cc(Cl)cc(Cn4cnc5c(N)ncnc54)c3[nH]2)cc1 [Example 258, N-({7-[(6-amino-9H-purin-9-yl)methyl]-5-chloro-1H-indol-2-yl}methyl)-4-methoxybenzamide]	4.58 µM
COc1cccc(C(=O)NCc2cc3cc(Cl)cc(Cn4cnc5c(N)ncnc54)c3[nH]2)c1 [Example 259, N-({7-[(6-amino-9H-purin-9-yl)methyl]-5-chloro-1H-indol-2-yl}methyl)-3-methoxybenzamide]	3.53 µM
COc1ccccc1C(=O)NCc1cc2cc(Cl)cc(Cn3cnc4c(N)ncnc43)c2[nH]1 [Example 260, N-({7-[(6-amino-9H-purin-9-yl)methyl]-5-chloro-1H-indol-2-yl}methyl)-2-methoxybenzamide]	3.55 µM
CS(=O)(=O)c1ccc(CNCc2cc3cc(Cl)cc(Cn4cnc5c(N)ncnc54)c3[nH]2)cc1F [Example 264, 9-{[5-chloro-2-({[3-fluoro-4-(methylsulfonyl)benzyl]amino}methyl)-1H-indol-7-yl]methyl}-9H-purin-6-amine]	3.23 µM
N#Cc1ccc(CNCc2cc3cc(Cl)cc(Cn4cnc5c(N)ncnc54)c3[nH]2)cc1 [Example 267, 4-{[({7-[(6-amino-9H-purin-9-yl)methyl]-5-chloro-1H-indol-2-yl}methyl)amino]methyl}benzonitrile]	3.43 µM
N#Cc1cccc(CNCc2cc3cc(Cl)cc(Cn4cnc5c(N)ncnc54)c3[nH]2)c1 [Example 268, 3-{[({7-[(6-amino-9H-purin-9-yl)methyl]-5-chloro-1H-indol-2-yl}methyl)amino]methyl}benzonitrile]	4.64 µM
N#Cc1ccccc1CNCc1cc2cc(Cl)cc(Cn3cnc4c(N)ncnc43)c2[nH]1 [Example 269, 2-{[({7-[(6-amino-9H-purin-9-yl)methyl]-5-chloro-1H-indol-2-yl}methyl)amino]methyl}benzonitrile]	5.6 µM
N#Cc1ccc(F)c(CNCc2cc3cc(Cl)cc(Cn4cnc5c(N)ncnc54)c3[nH]2)c1 [Example 270, 3-{[({7-[(6-amino-9H-purin-9-yl)methyl]-5-chloro-1H-indol-2-yl}methyl)amino]methyl}-4-fluorobenzonitrile]	3.75 µM
Cc1ccc(N)cc1C(=O)NCc1cc2cc(Cl)cc(Cn3cnc4c(N)ncnc43)c2[nH]1 [Example 271, 5-amino-N-({7-[(6-amino-9H-purin-9-yl)methyl]-5-chloro-1H-indol-2-yl}methyl)-2-methylbenzamide]	2.98 µM
N#Cc1ccccc1C(=O)NCc1cc2cc(Cl)cc(Cn3cnc4c(N)ncnc43)c2[nH]1 [Example 274, N-({7-[(6-amino-9H-purin-9-yl)methyl]-5-chloro-1H-indol-2-yl}methyl)-2-cyanobenzamide]	11.3 µM
CNc1ccccc1C(=O)NCc1cc2cc(Cl)cc(Cn3cnc4c(N)ncnc43)c2[nH]1 [Example 275, N-({7-[(6-amino-9H-purin-9-yl)methyl]-5-chloro-1H-indol-2-yl}methyl)-2-(methylamino)benzamide]	13.2 µM

Now those with a lower IC50, led by results:

IC50	SMILES
2.64 µM	Cc1ccccc1CNCc1cc2cc(Cl)cc(Cn3cnc4c(N)ncnc43)c2[nH]1 [Example 242, 9-[(5-chloro-2-{[(2-methylbenzyl)amino]methyl}-1H-indol-7-yl)methyl]-9H-purin-6-amine]
1.94 µM	Cc1cccc(F)c1CNCc1cc2cc(Cl)cc(Cn3cnc4c(N)ncnc43)c2[nH]1 [Example 244, 9-[(5-chloro-2-{[(2-fluoro-6-methylbenzyl)amino]methyl}-1H-indol-7-yl)methyl]-9H-purin-6-amine]
2.03 µM	Cc1cccc(CNCc2cc3cc(Cl)cc(Cn4cnc5c(N)ncnc54)c3[nH]2)c1F [Example 245, 9-[(5-chloro-2-{[(2-fluoro-3-methylbenzyl)amino]methyl}-1H-indol-7-yl)methyl]-9H-purin-6-amine]
0.571 µM	Cc1ccccc1C(=O)NCc1cc2cc(Cl)cc(Cn3cnc4c(N)ncnc43)c2[nH]1 [Example 248, N-({7-[(6-amino-9H-purin-9-yl)methyl]-5-chloro-1H-indol-2-yl}methyl)-2-methylbenzamide]
2.14 µM	Nc1ncnc2c1ncn2Cc1cc(Cl)cc2cc(CNC(=O)Cc3cccc(Cl)c3)[nH]c12 [Example 252, N-({7-[(6-amino-9H-purin-9-yl)methyl]-5-chloro-1H-indol-2-yl}methyl)-2-(3-chlorophenyl)acetamide]
0.493 µM	Nc1ncnc2c1ncn2Cc1cc(Cl)cc2cc(CNC(=O)c3ccccc3C(F)(F)F)[nH]c12 [Example 257, N-({7-[(6-amino-9H-purin-9-yl)methyl]-5-chloro-1H-indol-2-yl}methyl)-2-(trifluoromethyl)benzamide]
1.99 µM	Nc1ncnc2c1ncn2Cc1cc(Cl)cc2cc(CNC(=O)c3ccccc3OC(F)F)[nH]c12 [Example 261, N-({7-[(6-amino-9H-purin-9-yl)methyl]-5-chloro-1H-indol-2-yl}methyl)-2-(difluoromethoxy)benzamide]
2.75 µM	CS(=O)(=O)c1cccc(CNCc2cc3cc(Cl)cc(Cn4cnc5c(N)ncnc54)c3[nH]2)c1 [Example 262, 9-{[5-chloro-2-({[3-(methylsulfonyl)benzyl]amino}methyl)-1H-indol-7-yl]methyl}-9H-purin-6-amine]
1.75 µM	CS(=O)(=O)c1cc(CNCc2cc3cc(Cl)cc(Cn4cnc5c(N)ncnc54)c3[nH]2)ccc1F [Example 263, 9-{[5-chloro-2-({[4-fluoro-3-(methylsulfonyl)benzyl]amino}methyl)-1H-indol-7-yl]methyl}-9H-purin-6-amine]
2.14 µM	CS(=O)(=O)c1ccccc1C(=O)NCc1cc2cc(Cl)cc(Cn3cnc4c(N)ncnc43)c2[nH]1 [Example 265, N-({7-[(6-amino-9H-purin-9-yl)methyl]-5-chloro-1H-indol-2-yl}methyl)-2-(methylsulfonyl)benzamide]
0.911 µM	CS(=O)(=O)c1ccc(C(=O)NCc2cc3cc(Cl)cc(Cn4cnc5c(N)ncnc54)c3[nH]2)c(Cl)c1 [Example 266, N-({7-[(6-amino-9H-purin-9-yl)methyl]-5-chloro-1H-indol-2-yl}methyl)-2-chloro-4-(methylsulfonyl)benzamide]
0.378 µM	N#Cc1ccc(C(=O)NCc2cc3cc(Cl)cc(Cn4cnc5c(N)ncnc54)c3[nH]2)cc1 [Example 272, N-({7-[(6-amino-9H-purin-9-yl)methyl]-5-chloro-1H-indol-2-yl}methyl)-4-cyanobenzamide]
1.5 µM	N#Cc1cccc(C(=O)NCc2cc3cc(Cl)cc(Cn4cnc5c(N)ncnc54)c3[nH]2)c1 [Example 273, N-({7-[(6-amino-9H-purin-9-yl)methyl]-5-chloro-1H-indol-2-yl}methyl)-3-cyanobenzamide]
0.039 µM	N#Cc1ccc(C(=O)NCc2cc3cc(Cl)cc(Cn4cnc5c(N)ncnc54)c3[nH]2)c(Cl)c1 [Example 276, N-({7-[(6-amino-9H-purin-9-yl)methyl]-5-chloro-1H-indol-2-yl}methyl)-2-chloro-4-cyanobenzamide]
